We go through 4 compounds from PMC2937029 (PLoS ONE, 2010).

Like-named read-outs stand apart in the source and are kept apart here.

The target in one experiment is T1, HprK/P (Brucella melitensis, UniProt Q8YE44).
T1 construct: gene BMEI2034

In another experiment the target is T2, EI^Ntr (Brucella melitensis, UniProt Q8YJ96).
T2 construct: gene BMEI0190
Particulars: labelled compound; 10 µM [32P]PEP, NPr as acceptor, 5 mM MgCl2, pH 7.4, 37°C; covalent phosphoryl transfer.

T1 sequence (Q8YE44 1-159): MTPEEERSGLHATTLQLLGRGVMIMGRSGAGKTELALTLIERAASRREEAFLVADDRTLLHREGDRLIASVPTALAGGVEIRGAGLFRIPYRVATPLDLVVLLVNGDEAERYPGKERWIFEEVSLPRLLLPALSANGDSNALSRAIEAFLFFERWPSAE
T2 sequence (Q8YJ96 1-756): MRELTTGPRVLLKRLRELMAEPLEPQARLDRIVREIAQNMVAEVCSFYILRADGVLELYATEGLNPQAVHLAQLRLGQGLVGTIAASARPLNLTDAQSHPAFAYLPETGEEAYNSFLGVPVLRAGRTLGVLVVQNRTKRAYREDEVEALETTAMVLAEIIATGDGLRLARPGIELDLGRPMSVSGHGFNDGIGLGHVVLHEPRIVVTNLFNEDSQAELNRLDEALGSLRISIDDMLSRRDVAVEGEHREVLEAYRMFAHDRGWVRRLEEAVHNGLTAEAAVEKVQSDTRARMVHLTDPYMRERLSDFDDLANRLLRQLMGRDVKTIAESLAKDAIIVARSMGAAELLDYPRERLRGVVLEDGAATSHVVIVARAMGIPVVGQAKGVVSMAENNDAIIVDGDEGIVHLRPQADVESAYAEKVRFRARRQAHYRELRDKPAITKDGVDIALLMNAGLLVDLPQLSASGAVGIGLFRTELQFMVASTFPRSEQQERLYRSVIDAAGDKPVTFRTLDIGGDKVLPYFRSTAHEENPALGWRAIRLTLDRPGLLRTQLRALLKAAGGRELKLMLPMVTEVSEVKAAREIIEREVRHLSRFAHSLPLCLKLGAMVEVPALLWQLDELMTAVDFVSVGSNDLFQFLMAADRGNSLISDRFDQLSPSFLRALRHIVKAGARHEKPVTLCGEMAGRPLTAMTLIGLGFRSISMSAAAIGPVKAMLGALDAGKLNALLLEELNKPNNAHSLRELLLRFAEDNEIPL

In the case of `Nc1ncnc2c1ncn2[C@@H]1O[C@H](COP(=O)(O)OP(=O)(O)OP(=O)(O)O)[C@@H](O)[C@H]1O` [ATP], at HprK/P (labelled compound, 25 µM [γ-32P]ATP, NPr as acceptor, no FBP or KPi, 5 mM MgCl2, pH 7.4, 37°C), the “32P NPr kinase assay, SDS-PAGE, phosphorimaging” value (“32P NPr kinase assay, SDS-PAGE” below) is “HprK/P phosphorylated wild type NPr and NPrH30A in an ATP-dependent way”.

Take `C=C(OP(=O)(O)O)C(=O)O` [PEP]: the “32P phosphotransfer to NPr, SDS-PAGE, phosphorimaging” value on EI^Ntr is given as “the additional presence of EI allowed the phosphorylation of wild-type NPr”.

With `O=P(O)(O)OP(=O)(O)O` [PPi], the “32P NPr kinase assay, SDS-PAGE” value at HprK/P is given as “With both phosphoryl group donors, HprK/P was active as a kinase”.

As to `O=P(O)(O)O` [Pi], the “32P NPr kinase assay, SDS-PAGE” value at HprK/P was “inhibition of both the ATP- and PPi-dependent kinase activities of B. melitensis HprK/P”.
